Source: US8703701B2 (Indiana University Research and Technology Corporation, priority 2009, dated 2014)
One block for each compound: values may come before it. Starred links: 1 amine or outer side, 2 acyl side, 3 side chain; linkers in the order of their positions; H or OH if unused. Non-standard residues stand in square brackets, D forms with d. Residues, ends and D or L forms follow the SMILES beside them. Groups on a side chain read outwards from the residue. *: point of attachment. γGlu = O=C(O)[C@H](CCC(=O)[*:2])N[*:1]; Stearoyl = CCCCCCCCCCCCCCCCCC(=O)*; Palmitoyl = CCCCCCCCCCCCCCCC(=O)*; Aib = CC(C)(N)C(=O)O

Key:
glucagon receptor = molecular target: T1, glucagon receptor (Homo sapiens, UniProt P47871); assay: cAMP induction, firefly luciferase reporter assay, glucagon receptor; assay type: cell-based; settings: for Activity at Glucagon Receptor % Relative Activity: compared to native glucagon
T1 construct: expressed in transfected cells; host or cells: HEK293
T1 sequence (P47871 26-477): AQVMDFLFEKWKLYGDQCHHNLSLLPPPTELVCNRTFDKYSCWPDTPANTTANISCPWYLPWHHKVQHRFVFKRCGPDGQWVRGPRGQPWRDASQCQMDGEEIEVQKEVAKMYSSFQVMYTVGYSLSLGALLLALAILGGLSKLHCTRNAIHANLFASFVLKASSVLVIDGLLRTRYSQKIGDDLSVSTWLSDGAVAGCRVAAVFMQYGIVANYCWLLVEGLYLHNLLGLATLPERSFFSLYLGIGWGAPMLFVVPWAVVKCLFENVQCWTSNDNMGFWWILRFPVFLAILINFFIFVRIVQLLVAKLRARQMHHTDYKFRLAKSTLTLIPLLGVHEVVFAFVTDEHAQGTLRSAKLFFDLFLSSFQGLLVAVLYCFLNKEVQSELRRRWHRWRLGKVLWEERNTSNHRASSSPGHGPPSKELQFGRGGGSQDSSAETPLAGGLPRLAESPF
Experimental: (§1) The ability of each peptide to induce cAMP was measured in a firefly luciferase-based reporter assay.
(§2) At the end of the incubation, 100 μL of LucLite luminescence substrate reagent (Perkin Elmer, Wellesley, Mass.) were added to each well. The plate was shaken briefly, incubated 10 min in the dark and light output was measured on MicroBeta-1450 liquid scintillation counter (Perkin-Elmer, Wellesley, Mass.).

GLP-1 receptor = molecular target: T2, GLP-1 receptor (Homo sapiens, UniProt P43220); assay: cAMP induction, firefly luciferase reporter assay, GLP-1 receptor; assay type: cell-based; settings: for Activity at GLP-1 Receptor % Relative Activity: compared to native GLP-1
T2 construct: expressed in transfected cells; host or cells: HEK293
T2 sequence (P43220 24-463): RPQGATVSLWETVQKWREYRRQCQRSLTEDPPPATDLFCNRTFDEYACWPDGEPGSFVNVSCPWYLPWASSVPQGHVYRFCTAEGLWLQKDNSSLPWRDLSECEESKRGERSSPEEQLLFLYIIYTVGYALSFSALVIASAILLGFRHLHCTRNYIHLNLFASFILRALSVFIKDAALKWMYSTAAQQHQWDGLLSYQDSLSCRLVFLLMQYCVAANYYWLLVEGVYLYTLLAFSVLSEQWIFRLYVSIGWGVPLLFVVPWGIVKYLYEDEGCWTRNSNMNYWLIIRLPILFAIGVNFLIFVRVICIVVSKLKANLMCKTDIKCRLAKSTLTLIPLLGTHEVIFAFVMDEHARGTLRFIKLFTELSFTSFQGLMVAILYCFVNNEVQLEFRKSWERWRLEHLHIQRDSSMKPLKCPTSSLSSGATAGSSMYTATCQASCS
Experimental: as §1, §2

Structure (SMILES): CCCCCCCCCCCCCCCC(=O)N[C@@H](CCC(=O)NCCCC[C@H](NC(=O)[C@H](CC(=O)O)NC(=O)[C@H](CO)NC(=O)[C@@H](NC(=O)[C@H](Cc1ccccc1)NC(=O)[C@@H](NC(=O)CNC(=O)[C@H](CCC(N)=O)NC(=O)[C@@H](CO)NC(=O)[C@@H](N)Cc1c[nH]cn1)[C@@H](C)O)[C@@H](C)O)C(=O)N[C@@H](CO)C(=O)N[C@@H](CCCCN)C(=O)N[C@@H](Cc1ccc(O)cc1)C(=O)N[C@@H](CC(C)C)C(=O)N[C@@H](CC(=O)O)C(=O)N[C@@H](CCC(=O)O)C(=O)N[C@@H](CCC(N)=O)C(=O)N[C@@H](C)C(=O)N[C@@H](C)C(=O)N[C@@H](CCCCN)C(=O)N[C@@H](CCC(=O)O)C(=O)N[C@@H](Cc1ccccc1)C(=O)N[C@H](C(=O)N[C@@H](CS)C(=O)N[C@@H](Cc1c[nH]c2ccccc12)C(=O)N[C@@H](CC(C)C)C(=O)N[C@@H](CC(C)C)C(=O)N[C@@H](CC(=O)O)C(=O)N[C@H](C(=O)N[C@@H](CCC(=O)O)C(N)=O)[C@@H](C)O)[C@@H](C)CC)C(=O)O [compound 83]
Activity at Glucagon Receptor % Relative Activity (glucagon receptor; Table 3C): 61%
Activity at GLP-1 Receptor % Relative Activity (GLP-1 receptor; Table 3C): 288%

Structure (SMILES): CSCC[C@H](NC(=O)[C@H](CC(C)C)NC(=O)[C@H](Cc1c[nH]c2ccccc12)NC(=O)[C@H](CCC(N)=O)NC(=O)[C@@H](NC(=O)[C@H](Cc1ccccc1)NC(=O)[C@H](CCC(=O)O)NC(=O)[C@H](CCCCN)NC(=O)[C@H](C)NC(=O)[C@H](CCCNC(=N)N)NC(=O)[C@H](CCCCN)NC(=O)[C@H](CCC(=O)O)NC(=O)[C@H](CC(=O)O)NC(=O)[C@H](CC(C)C)NC(=O)[C@H](Cc1ccc(O)cc1)NC(=O)[C@H](CCCCN)NC(=O)[C@H](CO)NC(=O)[C@H](Cc1ccc(O)cc1)NC(=O)[C@H](CC(=O)O)NC(=O)[C@H](CO)NC(=O)[C@@H](NC(=O)[C@H](Cc1ccccc1)NC(=O)[C@@H](NC(=O)CNC(=O)[C@H](CCC(N)=O)NC(=O)[C@@H](CO)NC(=O)[C@@H](N)Cc1c[nH]cn1)[C@@H](C)O)[C@@H](C)O)C(C)C)C(=O)N[C@@H](CC(N)=O)C(=O)N[C@H](C(N)=O)[C@@H](C)O [compound 20]
EC50 (glucagon receptor; Activity at Glucagon Receptor EC50 (nM), Table 2A): 54 pM
EC50 (GLP-1 receptor; Activity at GLP-1 Receptor EC50 (nM), Table 2A): 284 pM

Structure (SMILES): CC(C)C[C@H](NC(=O)[C@H](CC(C)C)NC(=O)[C@H](Cc1c[nH]c2ccccc12)NC(=O)[C@H](CS)NC(=O)[C@@H](NC(=O)[C@H](Cc1ccccc1)NC(=O)[C@H](CCC(=O)O)NC(=O)[C@H](CCCCN)NC(=O)[C@H](C)NC(=O)[C@H](CCCNC(=N)N)NC(=O)[C@H](CCCCN)NC(=O)C(C)(C)NC(=O)[C@H](CC(=O)O)NC(=O)[C@H](CC(C)C)NC(=O)[C@H](Cc1ccc(O)cc1)NC(=O)[C@H](CCCCN)NC(=O)[C@H](CO)NC(=O)[C@H](Cc1ccc(O)cc1)NC(=O)[C@H](CC(=O)O)NC(=O)[C@H](CO)NC(=O)[C@@H](NC(=O)[C@H](Cc1ccccc1)NC(=O)[C@@H](NC(=O)CNC(=O)[C@H](CCC(N)=O)NC(=O)[C@@H](CO)NC(=O)[C@@H](N)Cc1c[nH]cn1)[C@@H](C)O)[C@@H](C)O)C(C)C)C(=O)N[C@@H](CC(=O)O)C(=O)NCC(=O)NCC(=O)N1CCC[C@H]1C(=O)N[C@@H](CO)C(=O)N[C@@H](CO)C(=O)NCC(=O)N[C@@H](C)C(=O)N1CCC[C@H]1C(=O)N1CCC[C@H]1C(=O)N1CCC[C@H]1C(=O)N[C@@H](CO)C(N)=O [compound 60] (H-H[dS]QGTFTSDYSKYLD[Aib]KRAKEFVCWLLDGGPSSGAPPPS-NH2; N-terminus assumed)
EC50 (glucagon receptor; Activity at Glucagon Receptor EC50 (nM), Table 2B): 6 pM
Activity at Glucagon Receptor % Relative Activity (glucagon receptor; Table 2B): 257%
Activity at GLP-1 Receptor % Relative Activity (GLP-1 receptor; Table 2B): 19%

Structure (SMILES): CSCC[C@H](NC(=O)[C@H](CC(C)C)NC(=O)[C@H](Cc1c[nH]c2ccccc12)NC(=O)[C@H](CCC(N)=O)NC(=O)[C@@H](NC(=O)[C@H](Cc1ccccc1)NC(=O)[C@H](CC(=O)O)NC(=O)[C@H](CCCCN)NC(=O)[C@H](C)NC(=O)[C@H](CCCNC(=N)N)NC(=O)[C@H](CCCNC(=N)N)NC(=O)[C@H](CCC(=O)O)NC(=O)[C@H](CC(=O)O)NC(=O)[C@H](CC(C)C)NC(=O)[C@H](Cc1ccc(O)cc1)NC(=O)[C@H](CCCCN)NC(=O)[C@H](CO)NC(=O)[C@H](Cc1ccc(O)cc1)NC(=O)[C@H](CC(=O)O)NC(=O)[C@H](CO)NC(=O)[C@@H](NC(=O)[C@H](Cc1ccccc1)NC(=O)[C@@H](NC(=O)CNC(=O)[C@H](CCC(N)=O)NC(=O)[C@H](CO)NC(=O)[C@@H](N)Cc1c[nH]cn1)[C@@H](C)O)[C@@H](C)O)C(C)C)C(=O)N[C@@H](CC(N)=O)C(=O)N[C@H](C(N)=O)[C@@H](C)O [compound 67]
Activity at Glucagon Receptor % Relative Activity (glucagon receptor; Table 2B): 93%
Activity at GLP-1 Receptor % Relative Activity (GLP-1 receptor; Table 2B): 47%

More lines, now with the values ahead:

Activity at Glucagon Receptor % Relative Activity (glucagon receptor; Table 3B): 325%
EC50 (GLP-1 receptor; Activity at GLP-1 Receptor EC50 [pM], Table 3B): 5 pM
Activity at GLP-1 Receptor % Relative Activity (GLP-1 receptor; Table 3B): 440%
Structure (SMILES): CCCCCCCCCCCCCCCC(=O)NCCCC[C@H](NC(=O)[C@H](CC(=O)O)NC(=O)[C@H](CO)NC(=O)[C@@H](NC(=O)[C@H](Cc1ccccc1)NC(=O)[C@@H](NC(=O)CNC(=O)[C@H](CCC(N)=O)NC(=O)C(C)(C)NC(=O)[C@@H](N)Cc1c[nH]cn1)[C@@H](C)O)[C@@H](C)O)C(=O)N[C@@H](CO)C(=O)N[C@@H](CCCCN)C(=O)N[C@@H](Cc1ccc(O)cc1)C(=O)N[C@@H](CC(C)C)C(=O)N[C@@H](CC(=O)O)C(=O)NC(C)(C)C(=O)N[C@@H](CCCNC(=N)N)C(=O)N[C@@H](C)C(=O)N[C@@H](C)C(=O)N[C@@H](CCC(N)=O)C(=O)N[C@@H](CC(=O)O)C(=O)N[C@@H](Cc1ccccc1)C(=O)N[C@H](C(=O)N[C@@H](CCC(N)=O)C(=O)N[C@@H](Cc1c[nH]c2ccccc12)C(=O)N[C@@H](CC(C)C)C(=O)N[C@@H](CCSC)C(=O)N[C@@H](CC(=O)O)C(=O)N[C@H](C(N)=O)[C@@H](C)O)C(C)C [compound 69] (H-H[Aib]QGTFTSDK(Palmitoyl)SKYLD[Aib]RAAQDFVQWLMDT-NH2; N-terminus assumed)

EC50 (glucagon receptor; Activity at Glucagon Receptor EC50 [pM], Table 3B): 4 pM
Activity at Glucagon Receptor % Relative Activity (glucagon receptor; Table 3B): 975%
Activity at GLP-1 Receptor % Relative Activity (GLP-1 receptor; Table 3B): 1222%
Structure (SMILES): CCCCCCCCCCCCCCCCCC(=O)N[C@@H](CCC(=O)N[C@@H](CCC(=O)NCCCC[C@H](NC(=O)[C@H](CC(=O)O)NC(=O)[C@H](CO)NC(=O)[C@@H](NC(=O)[C@H](Cc1ccccc1)NC(=O)[C@@H](NC(=O)CNC(=O)[C@H](CCC(N)=O)NC(=O)C(C)(C)NC(=O)[C@@H](N)Cc1c[nH]cn1)[C@@H](C)O)[C@@H](C)O)C(=O)N[C@@H](CO)C(=O)N[C@@H](CCCCN)C(=O)N[C@@H](Cc1ccc(O)cc1)C(=O)N[C@@H](CC(C)C)C(=O)N[C@@H](CC(=O)O)C(=O)NC(C)(C)C(=O)N[C@@H](CCCNC(=N)N)C(=O)N[C@@H](C)C(=O)N[C@@H](C)C(=O)N[C@@H](CCC(N)=O)C(=O)N[C@@H](CC(=O)O)C(=O)N[C@@H](Cc1ccccc1)C(=O)N[C@H](C(=O)N[C@@H](CCC(N)=O)C(=O)N[C@@H](Cc1c[nH]c2ccccc12)C(=O)N[C@@H](CC(C)C)C(=O)N[C@@H](CCSC)C(=O)N[C@@H](CC(=O)O)C(=O)N[C@H](C(N)=O)[C@@H](C)O)C(C)C)C(=O)O)C(=O)O [compound 71] (H-H[Aib]QGTFTSDK([γGlu-γGlu-Stearoyl])SKYLD[Aib]RAAQDFVQWLMDT-NH2; N-terminus assumed)

Activity at Glucagon Receptor % Relative Activity (glucagon receptor; Table 6): 80%
EC50 (GLP-1 receptor; Activity at GLP-1 Receptor EC50 [nM], Table 6): 68 pM
Activity at GLP-1 Receptor % Relative Activity (GLP-1 receptor; Table 6): 125%
Structure (SMILES): CCCCCCCCCCCCCCCC(=O)N[C@@H](CCC(=O)NCCCC[C@H](NC(=O)[C@H](CC(=O)O)NC(=O)[C@H](CO)NC(=O)[C@@H](NC(=O)[C@H](Cc1ccccc1)NC(=O)[C@@H](NC(=O)CNC(=O)[C@H](CCC(N)=O)NC(=O)C(C)(C)NC(=O)[C@@H](N)Cc1c[nH]cn1)[C@@H](C)O)[C@@H](C)O)C(=O)N[C@@H](CO)C(=O)N[C@@H](CCCCN)C(=O)N[C@@H](Cc1ccc(O)cc1)C(=O)N[C@@H](CC(C)C)C(=O)N[C@@H](CC(=O)O)C(=O)N[C@@H](CCC(=O)O)C(=O)N[C@@H](CCCNC(=N)N)C(=O)N[C@@H](C)C(=O)N[C@@H](C)C(=O)N[C@@H](CCC(N)=O)C(=O)N[C@@H](CC(=O)O)C(=O)N[C@@H](Cc1ccccc1)C(=O)N[C@H](C(=O)N[C@@H](CS)C(=O)N[C@@H](Cc1c[nH]c2ccccc12)C(=O)N[C@@H](CC(C)C)C(=O)N[C@@H](CC(C)C)C(=O)N[C@@H](CC(=O)O)C(=O)N[C@H](C(N)=O)[C@@H](C)O)C(C)C)C(=O)O [compound 58]

Activity at Glucagon Receptor % Relative Activity (glucagon receptor; Table 5): 7%
Activity at GLP-1 Receptor % Relative Activity (GLP-1 receptor; Table 5): 16%
Structure (SMILES): CCCCCCCCCCCCCCCC(=O)N[C@@H](CCC(=O)NCCCC[C@H](NC(=O)[C@H](CC(=O)O)NC(=O)[C@H](CO)NC(=O)[C@@H](NC(=O)[C@H](Cc1ccccc1)NC(=O)[C@@H](NC(=O)CNC(=O)[C@H](CCC(N)=O)NC(=O)[C@@H](CO)NC(=O)[C@@H](N)Cc1c[nH]cn1)[C@@H](C)O)[C@@H](C)O)C(=O)N[C@@H](CO)C(=O)N[C@@H](CCCCN)C(=O)N[C@@H](Cc1ccc(O)cc1)C(=O)N[C@@H](CC(C)C)C(=O)N[C@@H](CC(=O)O)C(=O)N[C@@H](CCC(=O)O)C(=O)N[C@@H](CCC(N)=O)C(=O)N[C@@H](C)C(=O)N[C@@H](C)C(=O)N[C@@H](CCCCN)C(=O)N[C@@H](CCC(=O)O)C(=O)N[C@@H](Cc1ccccc1)C(=O)N[C@H](C(=O)N[C@@H](CS)C(=O)N[C@@H](Cc1c[nH]c2ccccc12)C(=O)N[C@@H](CC(C)C)C(=O)N[C@@H](CC(C)C)C(=O)N[C@@H](CC(=O)O)C(=O)N[C@H](C(=O)NCC(=O)O)[C@@H](C)O)[C@@H](C)CC)C(=O)O [compound 55]
